Results as given in PubChem BioAssay (NCI).
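Tested at 5 concentrations; 48 h exposure; 96-well plates; endpoints linearly interpolated, else capped at highest concentration. Here, GI50 denotes the concentration required for 50% inhibition of growth. TGI: total growth inhibition.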

Experiments:
Assay in all cases: inhibition of tumour cell growth, NCI panel, 48 h
[1] = tested on: OVCAR-3 ovarian
[2] = tested on: MDA-MB-231 breast
[3] = tested on: HT29 colon
[4] = tested on: MDA-MB-435
[5] = tested on: NCI-H226 lung
[6] = tested on: SF-539 CNS
[7] = tested on: OVCAR-4 ovarian
[8] = tested on: MCF7 breast
[9] = tested on: SK-MEL-28 melanoma
[10] = tested on: A498 renal
[11] = tested on: T-47D breast
[12] = tested on: A549 NSCLC
[13] = tested on: HOP-62 NSCLC
[14] = tested on: UACC-62 melanoma
[15] = tested on: SK-OV-3 ovarian
[16] = tested on: HCT-15 colon
[17] = tested on: SK-MEL-2 melanoma
[18] = tested on: HOP-92 NSCLC
[19] = tested on: NCI-H522 lung
[20] = tested on: K-562 leukemia
[21] = tested on: U251 CNS
[22] = tested on: SK-MEL-5 melanoma
[23] = tested on: TK-10 renal
[24] = tested on: SW-620 colon
[25] = tested on: SNB-19 CNS
[26] = tested on: HCC-2998 colon
[27] = tested on: LOX IMVI melanoma
[28] = tested on: 786-0 renal
[29] = tested on: SNB-75 CNS
[30] = tested on: NCI-H23 lung
[31] = tested on: PC-3 prostate
[32] = tested on: UACC-257 melanoma
[33] = tested on: MDA-MB-468 breast
[34] = tested on: M14 melanoma
[35] = tested on: SF-268 CNS
[36] = tested on: BT-549 breast
[37] = tested on: OVCAR-5 ovarian
[38] = tested on: IGROV1 ovarian
[39] = tested on: DU-145 prostate
[40] = tested on: UO-31 renal
[41] = tested on: RPMI-8226 leukemia
[42] = tested on: KM12 colon
[43] = tested on: COLO 205 colon
[44] = tested on: CAKI-1 renal
[45] = tested on: MALME-3M melanoma
[46] = tested on: HL-60(TB) leukemia
[47] = tested on: ACHN renal

`CC(=O)Oc1ccccc1C(=O)[Se]CC(=O)Nc1cccc(C(F)(F)F)c1` was tested, and the GI50 [1] was 1.71 µM, the TGI [1] was 4.38 µM and the GI50 [2] was 2.31 µM. The TGI [2] was 4.18 µM, the GI50 [3] was 1.88 µM and the TGI [3] was 5.16 µM. It also gave a GI50 [4] of 3.12 µM, a TGI [4] of 5.41 µM and a GI50 [5] of 3.11 µM. It also gave a TGI [5] of 5.55 µM, a GI50 [6] of 1.87 µM and a TGI [6] of 3.34 µM. For the same compound, the GI50 [7] was 5.19 µM, the TGI [7] was 60.9 µM and the GI50 [8] was 2.75 µM. For the same compound, the TGI [8] was 12.4 µM, the GI50 [9] was 2.06 µM and the TGI [9] was 4.35 µM. It also gave a GI50 [10] of 1.45 µM, a TGI [10] of 2.95 µM and a GI50 [11] of 7.09 µM. The TGI [11] was 49.5 µM, the GI50 [12] was 1.66 µM and the TGI [12] was 3.8 µM. It also gave a GI50 [13] of 2.91 µM, a TGI [13] of 5.44 µM and a GI50 [14] of 1.38 µM. For the same compound, the TGI [14] was 3.07 µM, the GI50 [15] was 4.22 µM and the TGI [15] was 20.3 µM. It also gave a GI50 [16] of 1.42 µM, a TGI [16] of 2.85 µM and a GI50 [17] of 2.84 µM. For the same compound, the TGI [17] was 10.9 µM, the GI50 [18] was 0.763 µM and the TGI [18] was 2.15 µM. The GI50 [19] was 1.83 µM, the TGI [19] was 3.81 µM and the GI50 [20] was 5.59 µM. The TGI [20] was 55.3 µM, the GI50 [21] was 2.12 µM and the TGI [21] was 5.3 µM. For the same compound, the GI50 [22] was 1.29 µM, the TGI [22] was 2.69 µM and the GI50 [23] was 2.07 µM. The TGI [23] was 4.71 µM, the GI50 [24] was 1.46 µM and the TGI [24] was 3.11 µM. The GI50 [25] was 1.86 µM, the TGI [25] was 3.8 µM and the GI50 [26] was 11.9 µM. For the same compound, the TGI [26] was 25.7 µM, the GI50 [27] was 1.94 µM and the TGI [27] was 3.65 µM. For the same compound, the GI50 [28] was 2.21 µM, the TGI [28] was 4.62 µM and the GI50 [29] was 2.47 µM. The TGI [29] was 5.94 µM, the GI50 [30] was 1.5 µM and the TGI [30] was 3.87 µM. The GI50 [31] was 5.23 µM, the TGI [31] was 21.9 µM and the GI50 [32] was 3.21 µM. The TGI [32] was 9.82 µM, the GI50 [33] was 1.75 µM and the TGI [33] was 3.35 µM. The GI50 [34] was 1.95 µM, the TGI [34] was 3.83 µM and the GI50 [35] was 2.69 µM. For the same compound, the TGI [35] was 5.87 µM, the GI50 [36] was 2.13 µM and the TGI [36] was 3.61 µM. The GI50 [37] was 2.15 µM, the TGI [37] was 5.12 µM and the GI50 [38] was 2.05 µM. The TGI [38] was 4 µM, the GI50 [39] was 2.09 µM and the TGI [39] was 4.61 µM. The GI50 [40] was 1.23 µM, the TGI [40] was 2.56 µM and the GI50 [41] was 5.44 µM. For the same compound, the TGI [41] was 85 µM, the GI50 [42] was 5.04 µM and the TGI [42] was 19.5 µM. For the same compound, the GI50 [43] was 4.35 µM, the TGI [43] was 17 µM and the GI50 [44] was 0.198 µM. For the same compound, the TGI [44] was 0.361 µM, the GI50 [45] was 1.57 µM and the TGI [45] was 3.04 µM. For the same compound, the GI50 [46] was 1.78 µM, the TGI [46] was 5.27 µM and the GI50 [47] was 2.39 µM. It also gave a TGI [47] of 6.36 µM.
